What was measured:
LASV Z-mediated budding = type: cell-based, Lassa virus (LASV)
rLASV = test: microbe, parasite or virus in culture; type: cell-based, Lassa virus (LASV); conditions: Mammarenavirus lassaense, A549, read-out: rLASV (A549 cell) EC50
rCL-13/ZsG = type: cell-based, lymphocytic choriomeningitis virus (LCMV)
LCMV CL-13 = test system: LCMV CL-13; set-up: species or system C57BL/6 mice; conditions: mouse, in vivo, 150 mg/kg/day
r3Can = test: organism not typed; type: cell-based, Junín virus (JUNV) Candid#1 strain; conditions: Vero, read-out: r3Can (Vero cell) EC50
in vitro [1] = conditions: human
in vitro [2] = conditions: African green monkey (Chlorocebus aethiops)
rLCMV/ZsG = test: microbe, parasite or virus in culture; type: cell-based, lymphocytic choriomeningitis virus (LCMV); conditions: Mammarenavirus choriomeningitidis, A549, 48 h, read-out: rLCMV (A549 cell) EC50
r3Can/GFP = type: cell-based, Junín virus (JUNV)
rLASV/GFP = type: cell-based, Lassa virus (LASV)
[3] = test system: IFNB and ISG mRNA expression; type: cell-based, Homo sapiens
influenza A virus = conditions: mouse, in vivo; cited from earlier work

Structure (SMILES)	Z budding efficiency, ratio ZVLP:(ZVLP+ZWCL) (LASV Z-mediated budding)	EC50 (rLASV) [nM]	Cmp 4-induced antiviral effect with exogenous uridine (rCL-13/ZsG)	body weight loss and recovery versus vehicle control (LCMV CL-13)	viral load (serum virus titers) (LCMV CL-13)	EC50 (r3Can) [nM]	CC50 (in vitro [1]) [nM]	CC50 (in vitro [2]) [nM]	EC50 (rLCMV/ZsG) [nM]	r3Can/GFP propagation (r3Can/GFP)	rLASV/GFP propagation (rLASV/GFP)	mRNA levels of IFNB and ISGs in LCMV-infected cells [3]	ISG15 and IFIT1 expression in non-infected A549 cells ([3]; 5 µM, 48 h)	expression of IFNB in non-infected A549 cells ([3]; 5 µM, 48 h)	survival (influenza A virus)
COc1cccc(-c2ccc(NC(=O)C3=C(C(=O)O)CCC3)c(F)c2)c1 [Cmp 4, vidofludimus calcium]	very modest, but statistically significant, effect	3020	reverted	less body weight loss and faster recovery	did not cause a significant reduction	1680	54400	5920	1280						
Cc1c(-c2ccc(-c3ccccc3F)cc2)nc2ccc(F)cc2c1C(=O)O [Brequinar]		63				40	79000	47200	41	strongly inhibited	strongly inhibited	significantly decreased	moderately upregulated	Neither Cmp 1 nor brequinar treatment significantly affected	
CCOc1ccc(-c2cc(C(=O)O)c3cc(Br)ccc3n2)cc1 [FA-613]															increased survival
